Measured values taken from US20240059739A1, “PEPTIDES FOR INCREASING DRUG DELIVERY TO CANCER” (Chapman University, priority 2022, published 2024).
Like-named read-outs stand apart in the source and are kept apart here. Where a SMILES comes first, the peptide text is derived from it.

Tests used:
[1] = Serum stability (RP-HPLC AUC of intact peptide); assay type: in vitro ADME
Experimental: Serum stability. Human serum (250 μL) was thawed to room temperature and was added to DMEM media (650 μL). The mixture was kept in a 37° C. incubator to mimic human body temperature for 15 min. The peptide (100 μL, 1 mM) was dissolved (dispersed) in sterile water. The peptide solution was added to the pre-warmed human serum and DMEM mixture. The mixture was incubated at 37° C. At different time points (0, 0.5, 1, 5, and 24 h) aliquots (100 μL) were removed and added to methanol (200 μL). Each time point sample was kept at 4° C. for 5 min and then was centrifuged at 500×g for 15 min to separate serum proteins. The supernatant was injected into the RP-HPLC, and the major peaks were collected. The peak's mass was determined using MALDI-TOF mass analysis. The serum stabilities of the D-aa KK-11 were determined by comparing the HPLC peaks (AUC) for the intact peptides at different time points.
For in vivo studies, peptide KK-11 was labeled with a fluorescent Vivotag 680 XL in the N-terminus (Scheme 1). In addition, two amino acids in the sequence (norleucine and arginine) were substituted with D-amino acids to increase proteolytic stability. These amino acids were identified as proteolytically labile sites. The D-aa KK-11 peptide was assembled on acid-labile Rink amide resin and was characterized. The proteolytic stability of the D-aa KK-11 peptide was evaluated by incubating with human serum. The presence of the intact peptide after incubation with human serum for different time periods was detected using RP-HPLC and confirmed by MALDI-TOF mass analysis. […] However, peptide KK-11 with all L-amino acids reduced to an undetectable level within 30 min (data not shown). For conjugating VivoTag 680 XL dye, the peptide was modified by incorporating a β-alanine moiety generating the precursor Aβ-KK-11. The structure and mass of Aβ-KK-11 were confirmed by NMR (^1H and ^13C) and MALDI-TOF [M+H]^+ 1588.5 Da. Next, the β-alanine terminal amino group was allowed to react with the succinimidyl ester group of the reactive fluorophore (VivoTag 680 XL) under basic conditions in polar aprotic solvent, generating the fluorescently labeled peptide with extrusion of N-hydroxysuccinimide (NHS) (Scheme 1). The mass of the fluorescence-labeled VivoTag-Aβ-KK-11 was confirmed by MALDI-TOF, showing a peak at 2823.4 Da, corresponding to [M+H]^+.

[2] = tested on: human melanoma A375 tumor xenografts and organs; experiment: In vivo and ex vivo imaging of biodistribution in mice bearing A375 xenografts; design: species or system athymic nude mice; conditions: ex vivo imaging
Experimental: FIG. 4A and FIG. 4B-1 and FIG. 4B-2 show in vivo and ex vivo organ distribution images of VivoTag 680 XL-labeled D-aa KK-11 in athymic nude mice bearing human melanoma A375 tumors. Saline or VivoTag-KK-11 in a dose of 8 μg per mouse was injected into the mice via the tail vein (n=2 for each time point).
The top panels represent the scanned images of the tumor section area in coronal views. The bottom-row pictures display the fluorescence image in trans-axial views: arrows point to the spine, and circles mark the xenograft tumors.
Organs including tumor xenografts (T), liver (L), spleen (S), heart and lungs (H+L), kidneys (K), and brain (B) were excised and imaged using the IVIS Spectrum imaging system. Representative fluorescence images of different organs show peptide distribution at different time points as indicated.
Ex vivo and in vivo imaging. The study was carried out in compliance with Animal Research: Reporting of In Vivo Experiments (ARRIVE) guidelines. All the animal procedures were approved by the Institutional Animal Care and Use Committee (IACUC) at Chapman University and conducted in compliance with the policies of Chapman University, and federal, state, and local animal welfare authorities. Male and female athymic nude mice (4-6 weeks old) were kept (5 in each cage) in a pathogen-free environment. Approximately 10^6 human melanoma A375 cells (0.1 mL in normal saline), mixed with 0.1 mL cold Matrigel (#354248; Corning, Corning, NY), were injected subcutaneously in the flank. The tumor size was measured with a caliper, and body weight was recorded once a week. When the tumor size reached approximately 800-1000 mm^3 as calculated using the following formula: [Length×(Width^2)]/2 (in mm), mice were processed for in vivo or ex vivo imaging.
For in vivo imaging, normal saline or VivoTag-KK-11 at a dose of 8 μg per mouse was injected into the mice via the tail vein (n=2 for each time point). The animals were then scanned at different time intervals (0.5, 2, 6, and 24 h) using an IVIS Spectrum in vivo imaging system (PerkinElmer, Waltham, MA). The mice were imaged for 0.5 sec, 10 bin, level B at an emission wavelength of 688±5 nm. Imaging was limited to no more than once a day and was conducted under continuously maintained isoflurane. Mice were maintained on alfalfa-free diets to minimize the background fluorescence. All the study animals survived through the in vivo imaging procedure.
For ex vivo imaging at defined time intervals (5, 15, 30 min, followed by 1, 1.5, 2, 3, 4, 6, 24, and 48 h) following fluorescence conjugate injection, animals were euthanized via carbon dioxide inhalation (n=2 for each time point); tumor, liver, spleen, heart, lungs, brain, and kidneys were collected and briefly rinsed with saline. The organs were then imaged for 0.5 sec, 10 bin, level B at an emission wavelength of 688±5 nm using an IVIS Spectrum imaging system.

[3] = tested on: A375 melanoma cells; experiment: In vitro cytotoxicity detected by MTT colorimetric assay; assay type: cell-based, human
Experimental: (§1) The bar represents the average fluorescence density of three cell lines (A375, Sk-mel-28, and wm3211 cells) detected by fluorescence-activated cell sorting (FACS) analysis. The cells were incubated with FITC-labeled peptide for […] at 37° C. (0.5 μM, grey bar; 1 μM, dark bar). The control is cells incubated with FITC alone. […] Cells were either treated with DOX or co-treated with DOX and KK-11 (1 μM) for 72 h (KK-11+DOX) or pretreated with KK-11 for 4 h, then washed away following a DOX 72 h treatment (KK-11 to DOX). Control is DMSO or KK-11 alone. Cell viability was detected by a MTT colorimetric assay. Statistical analysis was performed with a student's t-test, and error bars denote mean±SD; **, p<0.01; ***, p<0.001 compared to DOX alone. […] Cells were treated with MAC-3-190 at various concentrations with or without 1 μM KK-11 for 72 h. Cell viability was detected by MTT assay. The assays were repeated independently at least three times.
In vitro cytotoxicity detected by MTT colorimetric assay. Cells were seeded in a 96-well plate and allowed to adhere overnight prior to adding the compound. After 72 h of treatment in serum-free media, an MTT solution was added to each well to give a final concentration of 0.5 mg/mL and was incubated for 3 h. Formed crystals were solubilized, and the absorbance was measured at 595 nm.

[4] = tested on: human melanoma cells (wm3211, Sk-mel-28, A375); experiment: In vitro cellular uptake of FITC-labeled peptides by flow cytometry (FACS); assay type: cell-based; conditions: 0.5 and 1 μM
Experimental: as §1
In vitro cellular uptake analysis. The peptide (FITC-labeled) concentration was determined using a Shimadzu BioSpec-nano Micro-volume UV-Vis spectrophotometer (Shimadzu). Human melanoma cells (wm3211, Sk-mel-28, and A375) were incubated with FITC or FITC-labeled peptides at final concentrations of 0.5 μM and 1 μM for 2 h. […] The mean fluorescence density of 10,000 cells was analyzed and compared to that of control cells.

[5] = tested on: human melanoma cell lines (A375, Sk-mel-28, wm115) compared to normal human HEK-293 cells; experiment: Peptide array-whole cell binding assay (CyQUANT fluorescence); assay type: cell-based; conditions: average fluorescent intensity of melanoma cells (A375, Sk-mel-28, wm115) bound to peptide divided by that of HEK-293 cells bound to same peptide
Description: Peptide array synthesis. Fifty-three peptide sequences were synthesized in duplicate on derivatized cellulose membrane (Intavis, Germany) using a ResPep SL Autospot robot. The detailed method was explained previously (Ahmed et al. Anal Chem. 82:7533-7541, 2010; Hossein-Nejad-Ariani et al. Sci Rep. 9:2723, 2019). Briefly, the sequences of peptides were entered in the robot software, and 384 spot synthesis mode was selected for this library. First, the membrane was dipped in DMF for an hour followed by transfer and support to the holder of the robot on filter paper. Then the membrane was washed with ethanol and subjected to a vacuum to remove any bubbles under the membrane. The Fmoc strategy was used for peptide synthesis. DIC and Oxyma pure were used as coupling reagent and racemization suppressor, respectively. After each coupling, capping of unreacted amino acids was done using acetic anhydride (3%), followed by 20% piperidine for Fmoc deprotection. The C-terminal end of all peptides were bound to the membrane. Following the synthesis, the membrane was dipped in deprotection solution containing 15 mL TFA, 15 mL DCM, 900 μL TIPS, and 600 μL water, and kept for 3 h at room temperature. Next, membranes were thoroughly washed with DCM, DMF, and ethanol. Finally, they were air dried and kept in a sealed bag at −20° C. until use.
Peptide array cell binding assay. The sequential steps of the assay are as described in a previous publication (Ahmed et al. 2010; Soudy et al. J Med Chem. 54:7523-7534, 2011). The membrane was dipped in ethanol for 30 sec to remove any precipitation of hydrophobic peptides. Then the membrane was dipped in sterile PBS at pH 7.4 for 30 min. The cells (75×10^3 cells/mL) were seeded directly on the membrane in a sterile plate and incubated at 37° C. for 4 h. After washing off the unbound cells with sterile PBS, pH 7.4, the membrane was frozen at −80° C. for 2 h. Subsequently, it was defrosted at room temperature and incubated in CyQUANT solution at 37° C. for 30 min following the manufacturer's protocol. The membrane was then washed with sterile PBS and air-dried.
Membranes were scanned using the ChemiDoc™ XRS+system (Bio-Rad) to analyze the fluorescence intensity of each spot. The setting was adjusted based on the excitation and emission wavelength of the CyQUANT dye at 465 nm and 535 nm, respectively. The fluorescence intensity (FI) was normalized by the FI of non-cancerous HEK-293 cells.
A library of 53 peptides was synthesized in an array format on a cellulose membrane using SPOT synthesis (Table 1). The peptide library was designed starting with five lead cancer cell targeting peptides, Arg peptide (1, Table 1), p160 analogue (11), RGD (16), GE11 (20), and LSD (37). Conservative substitutions, deletion from the N- or C-terminus, alanine scan, and scrambling of amino acids were used to design the analogues for the library. The peptides were screened for specific binding to three human melanoma cell lines. The cells were incubated with the cellulose membranes with conjugated peptides followed by incubation with CyQUANT fluorescence dye. A brief schematic for the peptide array-whole cell binding assay for screening peptides with high affinity for melanoma cells is shown in FIG. 2A. The relative cell adhesion capacities of the peptides to A375 (FIG. 2B), Sk-mel-28 (FIG. 2C), and wm115 were estimated based on the fluorescence of the bound melanoma cells compared to normal human HEK-293 cells.

[6] = tested on: A375 human melanoma xenograft; experiment: In vivo xenograft melanoma mouse model
Experimental: FIG. 5A; the tumors were measured three times a week using digital Vernier calipers. Tumor volume (mm^3) was calculated as [Length×(Width^2)/2. […] FIG. 5C; the body weights of the mice were measured after 21 days of treatment. Statistical analysis was performed with student's t-test and error bars denote mean±SD: *, p<0.05 compared to control group.
In vivo xenograft melanoma mouse model. Nude mice (Nu/Nu) were purchased from Charles River (Wilmington, MA) and were housed and maintained in the Chapman University vivarium under pathogen-free conditions. A375 cells were suspended in cold Matrigel and injected subcutaneously into the flank of each mouse (1×10^6 cells per mouse) to establish tumors. […] For the co-treatment, the solution of D-aa KK-11 and MAC-3-190 (1:11 molar ratio) was mixed gently and incubated at room temperature for 30 min before injection via tail vein. The growth of the tumors was monitored three times a week and measured using digital Vernier calipers. The tumor volume (mm^3) was calculated as [Length×(Width^2)]/2 (in mm). The mice were sacrificed after 21 days per IACUC policy when the control group's average tumor size reached 2,000 mm^3. Tumor xenografts were removed and weighed.

[7] = tested on: human primary glioma U87 cells; experiment: Binding to glioma cells (data not shown); assay type: cell-based

Compound: CCCC[C@@H](NC(=O)[C@H](Cc1c[nH]c2ccccc12)NC(=O)[C@@H]1CCCN1C(=O)[C@@H](N)C(C)C)C(=O)N[C@@H](CCC(=O)O)C(=O)N1CCC[C@H]1C(=O)N[C@@H](C)C(=O)N[C@@H](Cc1ccc(O)cc1)C(=O)N[C@@H](CCC(N)=O)C(=O)N[C@H](CCCNC(=N)N)C(=O)N[C@@H](Cc1ccccc1)C(=O)N[C@@H](CC(C)C)C(N)=O [D-aa KK-11, VPWxEPAYQrFL] (HELM PEPTIDE1{V.P.W.[CCCC[C@@H](N[*:1])C(=O)[*:2]].E.P.A.Y.Q.[dR].F.L.[am]}$$$$V2.0; N-terminus assumed)
- remaining at 5 h, 100 µM ([1]; human serum (25% v/v in DMEM), 37° C., 5 h, read-out: area under the curve of the peptide peak, of control (t=0 h)): 97.4%
- remaining at 24 h, 100 µM ([1]; human serum (25% v/v in DMEM), 37° C., 24 h, read-out: area under the curve of the peptide peak / peptide remaining, of control (t=0 h)): 45.3%
- area under the curve of the peptide peak / peptide remaining, of control (t=0 h) ([1]; human serum, 37° C., 24 h): 45.3%
- time at which fluorescence is evident in tumor xenografts ([2]; 8 μg per mouse, tail vein): ≤ 5 min
- time fluorescence remained detectable in tumor xenografts ([2]; single tail vein injection): up to 24 h

Compound: COc1cccc2c1C(=O)c1c(O)c3c(c(O)c1C2=O)C[C@@](O)(C(=O)CO)C[C@@H]3O[C@H]1C[C@H](N)[C@H](O)[C@H](C)O1 [DOX, doxorubicin]
- viability at 0.5 µM ([3]; Homo sapiens, A-375, 72 h, DOX 0.5 μM alone, 72 h, A375, read-out: cell viability, of control): 62%
- viability at 1 µM ([3]; Homo sapiens, A-375, 72 h, DOX 0.5 μM co-treatment with KK-11 (1 μM), 72 h, A375, read-out: cell viability, of control): 40%
- viability at 1 µM ([3]; Homo sapiens, A-375, 72 h, DOX 1 μM alone, 72 h, A375, read-out: cell viability (cells survived)): 24%
- viability at 1 µM ([3]; Homo sapiens, A-375, 72 h, DOX 1 μM in combination with KK-11 (1 μM), 72 h, A375, read-out: cell viability, of control): 14%
- change of DOX cytotoxicity ([3]; KK-11 and DOX sequentially (KK-11 pretreatment 4 h, washed, then DOX 72 h)): failed to produce any changes on DOX cytotoxicity

Compound: GRRPRPRPRP [Peptide 1, FITC-labeled (β-alanine spacer) in the uptake study]
- uptake by melanoma cells (in words) [4]: significantly increased uptake
- Fluorescence Ratio [5]: 1.82

Compound: VPWXEPAYQRFL [Peptide 11, X stands for norleucine]
- time until reduced to an undetectable level ([1]; human serum, data not shown): ≤ 30 min
- cytotoxicity of peptide alone ([3]; in vitro): No cytotoxicity
- toxicity of peptide alone in vivo [6]: No cytotoxicity
- binding to U87 cells [7]: can also bind
- Fluorescence Ratio [5]: 1.80
